In experiment [1] the test system is acute HIV infection of T-lymphoid cells. The experiment in a line: Assay for inhibition of HIV replication (spread assay). It is filed as cell-based, HIV-1. The conditions noted are these: Human immunodeficiency virus 1, T-lymphoid. As for the experimental part:
• Assay for Inhibition of HIV Replication
Assays for the inhibition of acute HIV infection of T-lymphoid cells were conducted in accordance with Vacca, J. P. et al., Proc. Natl. Acad. Sci. USA 1994, 91: 4096.

Experiment [2] has as its target wild-type HIV-1 protease (Human immunodeficiency virus type 1 group M subtype B, UniProt P04585). The experiment in a line: Assay for inhibition of microbial expressed HIV protease. It is filed as biochemical. On the procedure: Assay for Inhibition of Microbial Expressed HIV Protease
Inhibition studies of the reaction of the protease (which was expressed in Eschericia coli) with a peptide substrate [Val-Ser-Gln-Asn-(betanapthyl)Ala-Pro-Ile-Val]. The inhibitor is first preincubated with the enzyme in assay buffer (50 mM sodium acetate, pH 5.5, 100 mM NaCl, and 0.1% BSA) for 30 minutes at room temperature. Substrate is added to 440 micromolar in a total volume of 80 microliters containing 5 picomolar HIV-1 protease, and the reaction is incubated for 1 hour at 30° C. The reaction is quenched by addition of 120 microliters of 10% phosphoric acid, and product formation is determined after separation of product and substrate on a Vydac C18 column connected to an Alliance high performance liquid chromatography system (Waters Corporation). The extent of inhibition of the reaction is determined from the peak area of the products.

[3] abbreviates: wild-type HIV-1 protease expressed in E. coli, peptide substrate, pH 5.5, read-out: Enzyme Inhibition - IC50.

Where two headings read alike, the source gives them in different places.

As a reminder, the IC95 is the concentration needed for an effect of 95%. As a reminder, the IC50 is the concentration needed to halve the response being measured. In the case of `COC(=O)N[C@H](C(=O)N[C@H](CCC[C@@H](CO)N(CC(C)C)S(=O)(=O)c1ccc(N)cc1)C(C)C)C(c1ccccc1)c1ccccc1` [Example D14, N-{(1R,5S)-5-[[(4-aminophenyl)sulfonyl](isobutyl)amino]-6-hydroxy-1-isopropylhexyl}-Nα-(methoxycarbonyl)-β-phenyl-L-phenylalaninamide], in experiment [1] (read-out: Spread - IC95), the IC95 turned out to be 95 nM. Besides, the IC50 in experiment [2] (setting [3]) stood at 0.519 nM.

For `CC[C@@H](CCC[C@@H](CO)N(CCCF)S(=O)(=O)c1ccc(N)cc1)NC(=O)[C@@H](NC(=O)OC)C(c1ccccc1)c1ccccc1` [Example D15, N-{(1S,5S)-5-[[(4-aminophenyl)sulfonyl](3-fluoropropyl)amino]-1-ethyl-6-hydroxyhexyl}-Nα-(methoxycarbonyl)-β-phenyl-L-phenylalaninamide], in experiment [1] (read-out: Spread - IC95), the IC95 amounted to 39 nM. Moreover, in experiment [2] (setting [3]), the IC50 is 0.268 nM.

With `COC(=O)N[C@H](C(=O)N[C@H](CCC[C@@H](CO)N(CCC(C)C)S(=O)(=O)c1ccc(N)c(F)c1)C(C)C)C(c1ccccc1)c1ccccc1` [Example D16, N-{(1R,5S)-5-[[(4-amino-3-fluorophenyl)sulfonyl](3-methylbutyl)amino]-6-hydroxy-1-isopropylhexyl}-Nα-(methoxycarbonyl)-β-phenyl-L-phenylalaninamide], the IC95 in experiment [1] (read-out: Spread - IC95) is 152 nM. In addition, the IC50 in experiment [2] (setting [3]) was 0.329 nM.

Turning to `CC[C@@H](CCC[C@@H](CO)N(CCC(C)C)S(=O)(=O)c1ccc(N)c(Br)c1)NC(=O)[C@@H](NC(=O)OC)C(c1ccccc1)c1ccccc1` [Example D17, N-{(1S,5S)-5-[[(4-amino-3-bromophenyl)sulfonyl](3-methylbutyl)amino]-1-ethyl-6-hydroxyhexyl}-Nα-(methoxycarbonyl)-β-phenyl-L-phenylalaninamide], the IC95 in experiment [1] (read-out: Spread - IC95) amounted to 154 nM. The IC50 in experiment [2] (setting [3]) came out at 0.38 nM.

For `COC(=O)N[C@H](C(=O)N[C@H](CCC[C@@H](CO)N(CCC(C)C)S(=O)(=O)c1ccc(N)cc1)C1CC1)C(c1ccccc1)c1ccccc1` [Example E1], in experiment [1] (read-out: Spread - IC95), the IC95 came out at 11 nM. In experiment [2], the IC50 is 0.03 nM.

On to `COC(=O)N[C@H](C(=O)N[C@H](CCC[C@@H](CO)N(CCC(C)C)S(=O)(=O)c1ccc(CO)c(F)c1)C1CC1)C(c1ccc(F)cc1)c1ccc(F)cc1` [Example E2, N-{(1R,5S)-1-cyclopropyl-5-[{[3-fluoro-4-(hydroxymethyl)phenyl]sulfonyl}(3-methylbutyl)amino]-6-hydroxyhexyl}-4-fluoro-β-(4-fluorophenyl)-Nα-(methoxycarbonyl)-L-phenylalaninamide], for which the IC95 in experiment [1] (read-out: Spread - IC95) was 39 nM. Also, the IC50 in experiment [2] (setting [3]) was 0.017 nM.

For the compound `COC(=O)N[C@H](C(=O)N[C@H](CCC[C@@H](CO)N(CCC(C)C)S(=O)(=O)c1ccc(N)c(F)c1)C1CC1)C(c1ccccc1)c1ccccc1` [Example E3, N-{(1R,5S)-5-[[(4-amino-3-fluorophenyl)sulfonyl](3-methylbutyl)amino]-1-cyclopropyl-6-hydroxyhexyl}-Nα-(methoxycarbonyl)-β-phenyl-L-phenylalaninamide], the IC95 in experiment [1] (read-out: Spread - IC95) turned out to be 11 nM. Also, the IC50 in experiment [2] (setting [3]) stood at 0.057 nM.

In the case of `COC(=O)N[C@H](C(=O)N[C@H](CCC[C@@H](CO)N(CCC(C)C)S(=O)(=O)c1ccc(Cl)cc1)C1CC1)C(c1ccccc1)c1ccccc1` [Example E4, N-{(1R,5S)-5-[[(4-chlorophenyl)sulfonyl](3-methylbutyl)amino]-1-cyclopropyl-6-hydroxyhexyl}-Nα-(methoxycarbonyl)-β-phenyl-L-phenylalaninamide], in experiment [1] (read-out: Spread - IC95), the IC95 came out at 22 nM. Further, the IC50 in experiment [2] (setting [3]) amounted to 0.201 nM.

`COC(=O)N[C@H](C(=O)N[C@H](CCC[C@@H](CO)N(CCC(C)C)S(=O)(=O)c1ccc(C(C)=O)cc1)C1CC1)C(c1ccc(F)cc1)c1ccc(F)cc1` [Example E5, N-{(1R,5S)-5-[[(4-acetylphenyl)sulfonyl](3-methylbutyl)amino]-1-cyclopropyl-6-hydroxyhexyl}-4-fluoro-β-(4-fluorophenyl)-Nα-(methoxycarbonyl)-L-phenylalaninamide]: the IC95 in experiment [1] (read-out: Spread - IC95) was determined as 47 nM. In experiment [2] (setting [3]), the IC50 came to 0.053 nM.

As to `COC(=O)N[C@H](C(=O)N[C@H](CCC[C@@H](CO)N(CC(C)C)S(=O)(=O)c1ccc2ncsc2c1)C1CC1)C(c1ccccc1)c1ccccc1` [Example E6, N-{(1R,5S)-5-[(1,3-benzothiazol-6-ylsulfonyl)(isobutyl)amino]-1-cyclopropyl-6-hydroxyhexyl}-Nα-(methoxycarbonyl)-β-phenyl-L-phenylalaninamide], in experiment [1] (read-out: Spread - IC95), the IC95 was found to be 27 nM. Also, the IC50 in experiment [2] (setting [3]) amounted to 0.352 nM.

Consider `COC(=O)N[C@H](C(=O)N[C@H](CCC[C@@H](CO)N(CCC(C)C)S(=O)(=O)c1ccc(N)cc1)C1CC1)C(c1ccc(F)cc1)c1ccc(F)cc1` [Example E7, N-{(1R,5S)-5-[[(4-aminophenyl)sulfonyl](3-methylbutyl)amino]-1-cyclopropyl-6-hydroxyhexyl}-4-fluoro-β-(4-fluorophenyl)-Nα-(methoxycarbonyl)-L-phenylalaninamide], for which, in experiment [1] (read-out: Spread - IC95), the IC95 is 39 nM. Also, in experiment [2] (setting [3]), the IC50 was determined as 0.066 nM.

For the compound `COC(=O)N[C@@H](Cc1ccccc1Cl)C(=O)N[C@H](CCC[C@@H](CO)N(CCC(C)C)S(=O)(=O)c1ccc2ncsc2c1)C1CC1` [Example E8, N-{(1R,5S)-5-[(1,3-benzothiazol-6-ylsulfonyl)(3-methylbutyl)amino]-1-cyclopropyl-6-hydroxyhexyl}-2-chloro-Nα-(methoxycarbonyl)-L-phenylalaninamide], the IC95 in experiment [1] (read-out: Spread - IC95) turned out to be 195 nM. Besides, the IC50 in experiment [2] (setting [3]) came out at 1.4 nM.

For the compound `COC(=O)N[C@@H](Cc1cccc2ccccc12)C(=O)N[C@H](CCC[C@@H](CO)N(CCC(C)C)S(=O)(=O)c1ccc(N)cc1)C1CC1` [Example E9, methyl [(1S)-2-({(1R,5S)-5-[[(4-aminophenyl)sulfonyl](3-methylbutyl)amino]-1-cyclopropyl-6-hydroxyhexyl}amino)-1-(1-naphthylmethyl)-2-oxoethyl]carbamate], the IC95 in experiment [1] (read-out: Spread - IC95) amounted to 117 nM. For the same compound, the IC50 in experiment [2] (setting [3]) stood at 0.354 nM.

Regarding `CCCN([C@H](CO)CCC[C@H](C)NC(=O)[C@@H](NC(=O)OC)C(c1ccccc1)c1ccccc1)S(=O)(=O)c1ccc(N)cc1` [Example F2, N-{(1S,5S)-5-[[(4-aminophenyl)sulfonyl](propyl)amino]-6-hydroxy-1-methylhexyl}-Nα-(methoxycarbonyl)-β-phenyl-L-phenylalaninamide], in experiment [1] (read-out: Spread - IC95 (nM)), the IC95 was 23 nM. In addition, in experiment [2] (setting [3]), the IC50 was determined as 0.028 nM.

With `CC[C@@H](CCC[C@@H](CO)N(CCC(C)C)S(=O)(=O)c1ccc(N)cc1)NC(=O)[C@H](Cc1ccccc1Br)NC(=O)OC` [Example F3, N-{(1S,5S)-5-[[(4-aminophenyl)sulfonyl](3-methylbutyl)amino]-1-ethyl-6-hydroxyhexyl}-2-bromo-Nα-(methoxycarbonyl)-L-phenylalaninamide], the IC95 in experiment [1] (read-out: Spread - IC95) was 25 nM. In addition, in experiment [2] (setting [3]), the IC50 turned out to be 0.196 nM.

On to `COC(=O)N[C@H](C(=O)N[C@@H](C)CCC[C@@H](CO)N(CCCF)S(=O)(=O)c1ccc(N)cc1)C(c1ccccc1)c1ccccc1` [Example F4, N-{(1S,5S)-5-[[(4-aminophenyl)sulfonyl](3-fluoropropyl)amino]-6-hydroxy-1-methylhexyl}-Nα-(methoxycarbonyl)-β-phenyl-L-phenylalaninamide], for which, in experiment [1] (read-out: Spread - IC95), the IC95 amounted to 65 nM. Also, the IC50 in experiment [2] (setting [3]) is 0.055 nM.

As to `CCCN([C@H](CO)CCC[C@H](CC)NC(=O)[C@@H](NC(=O)OC)C(c1ccccc1)c1ccccc1)S(=O)(=O)c1ccc(N)cc1` [Example F5, N-{(1S,5S)-5-[[(4-aminophenyl)sulfonyl](propyl)amino]-1-ethyl-6-hydroxyhexyl}-Nα-(methoxycarbonyl)-β-phenyl-L-phenylalaninamide], the IC95 in experiment [1] (read-out: Spread - IC95) was 54 nM. Further, the IC50 in experiment [2] (setting [3]) is 0.163 nM.

Take `CC[C@@H](CCC[C@@H](CO)N(CCC(C)C)S(=O)(=O)c1ccc(N)cc1)NC(=O)[C@@H](NC(=O)OC)C1c2ccccc2C=Cc2ccccc21` [Example F6, methyl [2-({(1S,5S)-5-[[(4-aminophenyl)sulfonyl](3-methylbutyl)amino]-1-ethyl-6-hydroxyhexyl}amino)-1-(5H-dibenzo[a,d][7]annulen-5-yl)-2-oxoethyl]carbamate]: the IC95 in experiment [1] (read-out: Spread - IC95) was found to be 10 nM. In addition, the IC50 in experiment [2] (setting [3]) came out at 0.01 nM.

As to `CCCN([C@H](CO)CCC[C@H](CC)NC(=O)[C@H](Cc1ccccc1Br)NC(=O)OC)S(=O)(=O)c1ccc(N)cc1` [Example F7, N-{(1S,5S)-5-[[(4-aminophenyl)sulfonyl](propyl)amino]-1-ethyl-6-hydroxyhexyl}-2-bromo-Nα-(methoxycarbonyl)-L-phenylalaninamide], the IC95 in experiment [1] (read-out: Spread - IC95) was 251 nM. Moreover, the IC50 in experiment [2] (setting [3]) is 0.862 nM.

For `CCCN([C@H](CO)CCC[C@H](CC)NC(=O)[C@H](Cc1ccccc1Cl)NC(=O)OC)S(=O)(=O)c1ccc(N)cc1` [Example F8, N-{(1S,5S)-5-[[(4-aminophenyl)sulfonyl](propyl)amino]-1-ethyl-6-hydroxyhexyl}-2-chloro-Nα-(methoxycarbonyl)-L-phenylalaninamide], in experiment [1] (read-out: Spread - IC95), the IC95 stood at 249 nM. Besides, the IC50 in experiment [2] (setting [3]) came to 1.45 nM.
